Values belong to the compound of their own block, whether it stands above or below them.
Tests used:
Format in all cases: cell-based
[1] = system: Providencia stuartii 92 12 101; assay: pH variation detection on modified chromID Coli medium (Example 6); set-up: Coloration strength: key to the marks not given beside the values; conditions: 50 mg/l, 24 h 37° C.
Description: (§1) The media were incubated for 24 hours at 37° C., then the spots formed were examined visually.

Hafnia alvei 05 04 201 = assay: as above; set-up: Coloration strength: key to the marks not given beside the values; conditions: 50 mg/l, 24 h 37° C.
Description: as §1

[2] = system: Ewingella americana 05 06 045; assay: as above; set-up: Coloration strength: key to the marks not given beside the values; conditions: 50 mg/l, 24 h 37° C.
Description: as §1

E. coli 05 04 163 = assay: as above; set-up: Coloration strength: key to the marks not given beside the values; conditions: 50 mg/l, 24 h 37° C.
Description: as §1

[3] = system: Forty-four strains of microorganisms; assay: pH variation detection on modified chromID Coli medium (Example 6), all strains; conditions: 50 mg/l; 24 h 37° C.; conclusion of Example 6
Description: as §1

[4] = system: Serratia marcescens 7303004; assay: Peptidase detection on Columbia medium (Example 4); conditions: 75 mg/l, 48 h 37° C.; for Growth: control C: ++
From the text: (§2) After homogenization, the media were distributed into 120-mm-squared dishes. A medium serving as a growth control (Columbia) and denoted C was also poured.

MRSA 0303033 = assay: Peptidase detection on Columbia medium (Example 4); conditions: 75 mg/l, 48 h 37° C.; for Growth: control C: ++
From the text: as §2

[5] = system: Listeria monocytogenes 8812049; assay: Peptidase detection on Columbia medium (Example 4); conditions: 75 mg/l, 48 h 37° C.; for Growth: control C: ++
From the text: as §2

[6] = system: Salmonella ser typhimurium 0801029; assay: Peptidase detection on Columbia medium (Example 4); conditions: 75 mg/l, 48 h 37° C.; for Growth: control C: ++
From the text: as §2

[7] = system: Providencia rettgeri 0706064; assay: Peptidase detection on Columbia medium (Example 4); conditions: 75 mg/l, 48 h 37° C.; for Growth: control C: ++
From the text: as §2

[8] = system: Enterococcus faecium 0610021; assay: Peptidase detection on Columbia medium (Example 4); conditions: 75 mg/l, 48 h 37° C.; for Growth: control C: ++
From the text: as §2

[9] = system: Pseudomonas aeruginosa 0001001; assay: Peptidase detection on Columbia medium (Example 4); conditions: 75 mg/l, 48 h 37° C.; for Growth: control C: ++
From the text: as §2

[10] = system: Streptococcus pyogenes 9806380; assay: Peptidase detection on Columbia medium (Example 4); conditions: 75 mg/l, 48 h 37° C.; for Growth: control C: ++
From the text: as §2

Candida albicans 0801025 = assay: Peptidase detection on Columbia medium (Example 4); conditions: 75 mg/l, 48 h 37° C.; for Growth: control C: ++
From the text: as §2

[11] = system: Citrobacter freundii 0006197; assay: Peptidase detection on Columbia medium (Example 4); conditions: 75 mg/l, 48 h 37° C.; for Growth: control C: ++
From the text: as §2

[12] = system: Staphylococcus epidermidis 0203050; assay: Peptidase detection on Columbia medium (Example 4); conditions: 75 mg/l, 48 h 37° C.; for Growth: control C: ++
From the text: as §2

[13] = system: Yersinia enterocolitica 7605019; assay: Peptidase detection on Columbia medium (Example 4); conditions: 75 mg/l, 48 h 37° C.; for Growth: control C: ++
From the text: as §2

[14] = system: Enterococcus faecalis 0008192; assay: Peptidase detection on Columbia medium (Example 4); conditions: 75 mg/l, 48 h 37° C.; for Growth: control C: ++
From the text: as §2

Escherichia coli 0002005 = assay: Peptidase detection on Columbia medium (Example 4); conditions: 75 mg/l, 48 h 37° C.; for Growth: control C: ++
From the text: as §2

Candida glabrata 0408083 = assay: Peptidase detection on Columbia medium (Example 4); conditions: 75 mg/l, 48 h 37° C.; for Growth: control C: +
From the text: as §2

[15] = system: Bacillus subtilis 0204038; assay: Peptidase detection on Columbia medium (Example 4); conditions: 75 mg/l, 48 h 37° C.; for Growth: control C: ++
From the text: as §2

[16] = system: Acinetobacter baumannii 0604029; assay: Peptidase detection on Columbia medium (Example 4); conditions: 75 mg/l, 48 h 37° C.; for Growth: control C: ++
From the text: as §2

[17] = system: Staphylococcus aureus 7811049; assay: Peptidase detection on Columbia medium (Example 4); conditions: 75 mg/l, 48 h 37° C.; for Growth: control C: ++
From the text: as §2

[18] = system: Klebsiella pneumoniae 0008009; assay: Peptidase detection on Columbia medium (Example 4); conditions: 75 mg/l, 48 h 37° C.; for Growth: control C: ++
From the text: as §2

[19] = system: Morganella morganii 9207053; assay: Peptidase detection on Columbia medium (Example 4); conditions: 75 mg/l, 48 h 37° C.; for Growth: control C: ++
From the text: as §2

[20] = system: Burkholderia cepacia 7507032; assay: Peptidase detection on Columbia medium (Example 4); conditions: 75 mg/l, 48 h 37° C.; for Growth: control C: ++
From the text: as §2

[21] = system: Enterobacter cloacae 0604040; assay: Peptidase detection on Columbia medium (Example 4); conditions: 75 mg/l, 48 h 37° C.; for Growth: control C: ++
From the text: as §2

[22] = system: Streptococcus pyogenes NCTC 8 306; assay: Peptidase detection on Columbia medium (Example 2); set-up: key to Growth: NG: No growth; 0.5: weak growth; 1: moderate growth; 2: good growth; conditions: 40 mg in 400 ml Columbia; 24 h 37° C.
Description: (§3) The 6 media were distributed into Petri dishes 90 mm in diameter, in a proportion of 20 ml per dish.
(§4) Seventeen strains of microorganisms stemming from collections and belonging to various species of bacteria and yeasts are inoculated in spots of approximately 10 000 colony-forming units.
(§5) The media are incubated for 24 hours at 37° C., and then the colonies formed are examined visually, with or without the addition of acid and under a UV lamp at 365 nm.

[23] = system: Enterobacter cloacae NCTC 11 936; assay: Peptidase detection on Columbia medium (Example 2); set-up: key to Growth: NG: No growth; 0.5: weak growth; 1: moderate growth; 2: good growth; conditions: 40 mg in 400 ml Columbia; 24 h 37° C.
Description: as §3, §4, §5

[24] = system: Pseudomonas aeruginosa NCTC 10 662; assay: Peptidase detection on Columbia medium (Example 2); set-up: key to Growth: NG: No growth; 0.5: weak growth; 1: moderate growth; 2: good growth; conditions: 40 mg in 400 ml Columbia; 24 h 37° C.
Description: as §3, §4, §5

Structure (SMILES): Nc1ccc(C=Cc2ccnc3ccccc23)cc1
Color [1]: Orange | Coloration strength [1]: ++ | Growth ([1]; control C: ++): ++ | Color (Hafnia alvei 05 04 201): Orange | Coloration strength (Hafnia alvei 05 04 201): ++ | Growth (Hafnia alvei 05 04 201; control C: ++): ++ | Color [2]: Orange | Coloration strength [2]: ++ | Growth ([2]; control C: ++): ++ | Color (E. coli 05 04 163): Orange | Coloration strength (E. coli 05 04 163): ++ | Growth (E. coli 05 04 163; control C: ++): ++ | toxicity [3]: does not exhibit any particular toxicity

Color [4]: orange | Coloration strength [4]: ++ | Growth [4]: ++ | Color (MRSA 0303033): orange | Coloration strength (MRSA 0303033): + | Growth (MRSA 0303033): ++ | Color [5]: orange | Coloration strength [5]: ++ | Growth [5]: ++ | Color [6]: orange | Coloration strength [6]: + | Growth [6]: ++ | Color [8]: − | Coloration strength [8]: − | Growth [8]: ++ | Color [9]: orange | Coloration strength [9]: ++ | Growth [9]: ++ | Color [10]: orange | Coloration strength [10]: + | Growth [10]: ++ | Color [11]: orange | Coloration strength [11]: + | Growth [11]: ++ | Color [14]: orange | Coloration strength [14]: + | Growth [14]: ++ | Color [15]: − | Coloration strength [15]: − | Growth [15]: ++ | Color [16]: orange | Coloration strength [16]: ++ | Growth [16]: ++ | Color [18]: orange | Coloration strength [18]: ++ | Growth [18]: ++ | Color [19]: orange | Coloration strength [19]: ++ | Growth [19]: ++ | Color [20]: orange | Coloration strength [20]: + | Growth [20]: ++ | Color [21]: orange | Coloration strength [21]: ++ | Growth [21]: ++
Structure (SMILES): C[C@H](N)C(=O)Nc1ccc(C=Cc2cc[n+](C)c3ccccc23)cc1.Cl.[Cl-] [L-alanyl-4-(4′-amidostyryl)-N-methylquinolinium (dichloride)]
Color [7]: orange | Coloration strength [7]: + | Growth [7]: ++ | Coloration strength (Candida albicans 0801025): − | Growth (Candida albicans 0801025): ++ | Color [12]: orange | Coloration strength [12]: ++ | Growth [12]: ++ | Color [13]: orange | Coloration strength [13]: ++ | Growth [13]: ++ | Color (Escherichia coli 0002005): orange | Coloration strength (Escherichia coli 0002005): ++ | Growth (Escherichia coli 0002005): ++ | Coloration strength (Candida glabrata 0408083): − | Growth (Candida glabrata 0408083): + | Coloration strength [17]: + | Growth [17]: ++

Growth [22]: 2 | Color [4]: orange | Coloration strength [4]: ++ | Growth [4]: ++ | Color (MRSA 0303033): orange | Coloration strength (MRSA 0303033): + | Growth (MRSA 0303033): ++ | Color [5]: orange | Coloration strength [5]: ++ | Growth [5]: ++ | Color [6]: orange | Coloration strength [6]: + | Growth [6]: ++ | Coloration strength [8]: − | Growth [8]: ++ | Color [9]: orange | Coloration strength [9]: ++ | Growth [9]: ++ | Color [10]: orange | Coloration strength [10]: + | Growth [10]: ++ | Color [11]: orange | Coloration strength [11]: + | Growth [11]: ++ | Color [14]: orange | Coloration strength [14]: + | Growth [14]: ++ | Coloration strength [15]: − | Growth [15]: ++ | Color [16]: orange | Coloration strength [16]: ++ | Growth [16]: ++ | Color [18]: orange | Coloration strength [18]: ++ | Growth [18]: ++ | Color [19]: orange | Coloration strength [19]: ++ | Growth [19]: ++ | Color [20]: orange | Coloration strength [20]: + | Growth [20]: ++ | Color [21]: orange | Coloration strength [21]: ++ | Growth [21]: ++ | Color [23]: Orange | Growth [23]: 2 | Color [24]: Orange | Growth [24]: 2
Structure (SMILES): C[C@H](N)C(=O)N[C@@H](C)C(=O)N[C@@H](C)C(=O)Nc1ccc(C=Cc2cc[n+](C)c3ccccc23)cc1.Cl.[Cl-] [Tri-Ala-ASQM^+, L-alanyl-L-alanyl-L-alanyl-4-(4′-amidostyryl)-N-methylquinolinium (dichloride)]
Color [7]: orange | Coloration strength [7]: + | Growth [7]: ++ | Growth (Candida albicans 0801025): + | Color [12]: orange | Coloration strength [12]: ++ | Growth [12]: ++ | Color [13]: orange | Coloration strength [13]: ++ | Growth [13]: ++ | Color (Escherichia coli 0002005): orange | Coloration strength (Escherichia coli 0002005): ++ | Growth (Escherichia coli 0002005): ++ | Growth (Candida glabrata 0408083): − | Coloration strength [17]: + | Growth [17]: ++

Reference: US8592174B2, “Peptidase substrates” (bioMérieux, S.A., priority 2009, dated 2013)
